Literature values, collected in paper PMC11054271, “ABCG2 Transports the Flukicide Nitroxynil and Affects Its Biodistribution and Secretion into Milk” (Pharmaceutics, 2024).

System: Abcg2
Set-up: method as in PMID 34062171
Settings: mice; cited from earlier work

## Cc1c(Cl)cccc1Nc1ccccc1C(=O)O [tolfenamic acid]
  Testis accumulation, fold higher in Abcg2−/− compared to wild-type: ~3 fold
